Laboratory results as given in ChEMBL document CHEMBL1201862, “PubChem BioAssay data set” (2004).
Counter-ions that a name gives are not always drawn.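 Interpolation was linear, between the two tested concentrations surrounding the appropriate level; five concentrations were tested over 48 hours in 96-well plates. GI50 = concentration required for 50% inhibition of growth.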 Activity calls are given as the source filed them. Rule as the data show it: active = GI50 up to about 1.1 µM and inactive = higher.

Columns and labels:
Experiment in all cases: NCI tumour cell line growth inhibition, 48 h
OVCAR-5 = test system: OVCAR-5
TK-10 = test system: TK-10
PC-3 = test system: PC-3
SF-539 = test system: SF-539
SK-MEL-2 = test system: SK-MEL-2
SR = test system: SR
HL-60 = test system: HL-60
NCI-H226 = test system: NCI-H226
SK-OV-3 = test system: SK-OV-3
A498 = test system: A498
SNB-19 = test system: SNB-19
M14 = test system: M14
HCT-15 = test system: HCT-15
HOP-92 = test system: HOP-92
SW-620 = test system: SW-620
RXF 393 = test system: RXF 393
786-0 = test system: 786-0
UO-31 = test system: UO-31
SK-MEL-5 = test system: SK-MEL-5
SF-268 = test system: SF-268

CCOc1cc(NC(C)=O)ccc1C(=O)NN1C(=O)CSC1c1ccccc1 (stereo not given)
GI50 (OVCAR-5): > 100000 nM (inactive) | GI50 (TK-10): 48800 nM (inactive) | GI50 (PC-3): 78700 nM (inactive) | GI50 (SF-539): > 100000 nM (inactive) | GI50 (SK-MEL-2): > 100000 nM (inactive) | GI50 (SR): 9860 nM (inactive) | GI50 (HL-60): 33500 nM (inactive) | GI50 (NCI-H226): > 100000 nM (inactive) | GI50 (SK-OV-3): > 100000 nM (inactive) | GI50 (A498): > 100000 nM (inactive) | GI50 (SNB-19): > 100000 nM (inactive) | GI50 (M14): > 100000 nM (inactive) | GI50 (HCT-15): 60300 nM | GI50 (HOP-92): 42500 nM (inactive) | GI50 (SW-620): > 100000 nM (inactive) | GI50 (RXF 393): 74600 nM (inactive) | GI50 (786-0): > 100000 nM (inactive) | GI50 (UO-31): 40700 nM (inactive) | GI50 (SK-MEL-5): 34400 nM (inactive) | GI50 (SF-268): > 100000 nM (inactive)

C[C@@H]1C[C@@H](O)[C@]2(O)O[C@@H]3C[C@@]4(C=O)[C@@H](CC[C@@H]5[C@@H]4CC[C@]4(C)[C@@H](C6=CC(=O)OC6)CC[C@]54O)C[C@H]3O[C@@H]2O1 [CALACTIN]
GI50 (OVCAR-5): 23.7 nM (active) | GI50 (TK-10): 9.06 nM (active) | GI50 (PC-3): 40.3 nM (active) | GI50 (SF-539): 5.81 nM (active) | GI50 (SK-MEL-2): 11.4 nM (active) | GI50 (SR): 2.75 nM (active) | GI50 (HL-60): 12.9 nM (active) | GI50 (NCI-H226): 24.3 nM (active) | GI50 (SK-OV-3): 11.8 nM (active) | GI50 (A498): 20.8 nM (active) | GI50 (SNB-19): 21.9 nM (active) | GI50 (M14): 22.2 nM (active) | GI50 (HCT-15): 16.2 nM | GI50 (HOP-92): 27.6 nM (active) | GI50 (SW-620): 13.3 nM (active) | GI50 (RXF 393): 19.4 nM (active) | GI50 (786-0): 6.17 nM (active) | GI50 (UO-31): 17.1 nM (active) | GI50 (SK-MEL-5): 10.1 nM (active) | GI50 (SF-268): 2.31 nM (active)

CC1=C(CO)C2=C(C)C3(CC3)[C@@](C)(O)C(=O)C2=C1 [IROFULVEN]
GI50 (OVCAR-5): 174 nM (active) | GI50 (TK-10): 279 nM (active) | GI50 (PC-3): 267 nM (active) | GI50 (SF-539): 172 nM (active) | GI50 (SK-MEL-2): 196 nM (active) | GI50 (SR): 792 nM (active) | GI50 (HL-60): 237 nM (active) | GI50 (NCI-H226): 191 nM (active) | GI50 (SK-OV-3): 248 nM (active) | GI50 (A498): 179 nM (active) | GI50 (SNB-19): 348 nM (active) | GI50 (M14): 258 nM (active) | GI50 (HCT-15): 290 nM | GI50 (HOP-92): 309 nM (active) | GI50 (SW-620): 614 nM (active) | GI50 (RXF 393): 50.7 nM (active) | GI50 (786-0): 199 nM (active) | GI50 (UO-31): 190 nM (active) | GI50 (SK-MEL-5): 161 nM (active) | GI50 (SF-268): 234 nM (active)

NCCCNCCCCNCCCN [SPERMINE TETRAHYDROCHLORIDE]
GI50 (OVCAR-5): > 100000 nM (inactive) | GI50 (TK-10): 6620 nM (inactive) | GI50 (PC-3): > 100000 nM (inactive) | GI50 (SF-539): 8830 nM (inactive) | GI50 (SK-MEL-2): > 100000 nM (inactive) | GI50 (SR): 3740 nM (inactive) | GI50 (HL-60): 4260 nM (inactive) | GI50 (NCI-H226): > 100000 nM (inactive) | GI50 (SK-OV-3): > 38700 nM (inactive) | GI50 (A498): > 100000 nM (inactive) | GI50 (SNB-19): > 100000 nM (inactive) | GI50 (M14): 9660 nM (inactive) | GI50 (HCT-15): 2670 nM | GI50 (HOP-92): 1930 nM (inactive) | GI50 (SW-620): 3660 nM (inactive) | GI50 (RXF 393): 14100 nM (inactive) | GI50 (786-0): 1460 nM (inactive) | GI50 (UO-31): 2230 nM (inactive) | GI50 (SK-MEL-5): > 57900 nM (inactive) | GI50 (SF-268): > 42700 nM (inactive)
